Measurements published in patent US20030166554A1, “Treatment of CNS disorders using D-amino acid oxidase and D-aspartate oxidase antagonists” (GENSET, S.A., priority 2001, published 2003).

What was measured:
[1] = tested on: PCP-induced hyperactivity in male Swiss mice; assay: Locomotor hyperactivity induced by PCP in mice (open field); type: in vivo; conditions: 30 minute open field, mean +/- s.e.m.
Method: Randomized groups of 10 male Swiss mice (9 weeks old, Elevage Janvier; Le Genest-St-Isle, France) were used for each study.
Mice were group-housed and maintained in an incubator with controlled temperature (21-22° C.) and a reversed light-dark cycle (12 h/12 h) with food and water available ad libitum. All experiments were carried out in accordance with institutional guidelines.
It is well known to those skilled in the art that phencyclidine (PCP) intoxication in mice closely mimics schizophrenia and therefore is commonly used as an animal model of schizophrenia. In the following experiments, the ability of the DAO inhibitor, sodium benzoate, to reverse PCP-induced hyperactivity was monitored. PCP and the test compound, sodium benzoate, were diluted in a 0.9% sterile aqueous solution of sodium chloride (1 mg/ml). Sodium benzoate was administered by intraperitoneal injection (IP) 2 hours before administration of PCP (0.3 mg/kg by subcutaneous (SC) injection 15 minutes before start of the test). The animals were placed into an open field, which was divided into nine equal squares. A video track (Viewpoint system) was placed over a Plexiglas open field (OF; length 52 cm×52 cm; height 40 cm) and animal activity was recorded. Over a 30 minute time period, two parameters were recorded: (a) number of crossed squares and (b) total distance walked.
A global analysis of the data was performed using a one way ANOVA followed by a Dunnett's test if possible. The level of significance was set at p<0.05. Results were expressed was mean +/− standard error of the mean (s.e.m.).

Pig kidney DAAO = target: T1, Pig kidney DAAO (Sus scrofa, UniProt P00371); assay: DAAO kinetics in the presence of g34872 protein (D-serine substrate); type: biochemical; conditions: 20° C.
T1 construct: The crude preparation of pig kidney DAAO was purchased from Sigma; purchased Sigma; host or cells: pig kidney tissue; purified further in house (Sephadex G-50, DEAE-Sepharose, Ultragel AcA44)
T1 sequence (P00371 whole entry): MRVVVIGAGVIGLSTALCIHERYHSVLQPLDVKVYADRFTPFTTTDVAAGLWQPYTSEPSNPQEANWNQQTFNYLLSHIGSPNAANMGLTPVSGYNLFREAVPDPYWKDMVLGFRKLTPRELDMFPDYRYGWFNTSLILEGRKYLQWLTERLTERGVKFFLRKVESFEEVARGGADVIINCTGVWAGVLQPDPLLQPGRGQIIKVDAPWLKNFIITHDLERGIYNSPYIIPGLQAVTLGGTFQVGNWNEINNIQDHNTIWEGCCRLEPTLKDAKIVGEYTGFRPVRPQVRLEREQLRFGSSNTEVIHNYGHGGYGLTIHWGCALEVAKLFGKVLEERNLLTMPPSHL
Method: (§1) The assay mixture was typically composed of D-serine (Aldrich) 200 mM, FAD (Sigma) at 0.1 mM, sodium phosphate buffer pH8 at 75 mM, HR-peroxidase (Sigma) 1U/ml. The mixture was air-saturated just before use. o-Dianizidine (Sigma) was added in the mixture. In the typical assay 5 μl of the enzyme (DAAO and mixes) was added to 25 μl of the assay mixture, the incubation was stopped with 50 μl of 20% H2SO4. The activity was observed as absorbance of the peroxidase-oxidized o-Dianizidine at 540 nm. The reactions containing high protein concentrations were centrifuged 15 min at 14000 rpm before absorbance measuring.
Pig kidney DAAO was mixed with g34872 in PBS and incubated 30 min at 20° C. DAAO concentration was 200 ng/μl and g34872 concentration was 2 μg/μl in the protein mixture. The control mixture (without g34872) was composed of 200 ng/μl DAAO and 2 μg/μl BSA. The enzymatic activity of DAAO was measured at 20° C. with D-serine, the substrate concentration used were from 0 to 100 mM, other corposants of the mixture and pH were standard.

hDAAO = target: T2, hDAAO (Homo sapiens, UniProt P14920); assay: DAAO activity of combined yeast extracts expressing hDAAO and g34872; type: biochemical; conditions: D-serine, 37° C., FIG. 1
T2 construct: made in house; host or cells: Saccharomyces cerevisiae (YPH499 and FY1679-18B strains), pESC-Leu vector, galactose induction; crude extract
T2 sequence (P14920 whole entry): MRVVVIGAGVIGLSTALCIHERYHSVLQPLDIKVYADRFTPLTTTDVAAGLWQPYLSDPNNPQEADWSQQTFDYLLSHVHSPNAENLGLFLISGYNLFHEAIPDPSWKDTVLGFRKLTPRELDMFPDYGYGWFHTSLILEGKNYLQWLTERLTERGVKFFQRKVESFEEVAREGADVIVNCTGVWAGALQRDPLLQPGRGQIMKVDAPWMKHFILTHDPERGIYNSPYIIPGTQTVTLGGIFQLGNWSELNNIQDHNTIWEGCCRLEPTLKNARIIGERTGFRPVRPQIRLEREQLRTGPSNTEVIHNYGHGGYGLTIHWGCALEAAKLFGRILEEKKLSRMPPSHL
Method: as §1
Yeast cells were transformed with the plasmids constructed in pESC-Leu expression vector. One plasmid can express hDAAO, second one—C-terminal tagged g34872, third—is the vector without insertion (control). After the induction of the expression (2% galactose in the medium) these cells were incubated for 24 h, than the extracts were maid and combined as follow: different volumes of DAAO extract were mixed with either g34872-cHis6 or with the vector extracts. The same volumes of DAAO extracts were also mixed with BSA (external control). After 30min of the pre-incubation the combined extracts were used for DAAO activity measuring. All yeast extracts and BSA solution had the same total protein concentration. DAAO activity was determined with D-serine at 37° C.

HR-peroxidase = assay: Peroxidase control assay (hydrogen peroxide substrate); type: biochemical; conditions: conditions identical to DAAO assay
Text: The assay of peroxidase was done in the conditions identical to those for DAAO assay; hydrogen peroxide (Gibco) was used as a substrate, and no effect of g34872 on HRP activity was confirmed.

[2] = PCP alone 0.3 mg/kg SC 15 minutes before test
[3] = sodium benzoate 400 mg/kg IP 2 hours before PCP 0.3 mg/kg SC

Molecule: c1ccc(C2(N3CCCCC3)CCCCC2)cc1 [PCP, phencyclidine]
- number of crossed squares [1, 2]: 977.0+/−64.6
- total distance walked [1, 2]: 18781.8+/−1447.5

Molecule: O=C([O-])c1ccccc1.[Na+] [sodium benzoate]
- total distance walked ([1]; sodium benzoate 125 mg/kg IP 2 hours before PCP 0.3 mg/kg SC): 14807.7+/−756.8
- number of crossed squares [1, 3]: 740.1+/−114.1
- total distance walked [1, 3]: 13521.0+/−1705.6

B1: g34872: purified recombinant g34872 protein, binding partner and activator of DAO (protein)
chain: HEDGYLEMAQRHLQRSLCPWVSYLPQPYAELEEVSSHVGKVFMARNYEFLAYEASKDRRQPLERMWTCNYNQQKDQSCNHKEITSTKAE
- Km (Pig kidney DAAO; g34872&DAAO mix: DAAO 200 ng/μl, g34872 2 μg/μl, D-serine 0 to 100 mM): 4 mM
- effect of g34872 on DAAO (mode of action) (Pig kidney DAAO; pig kidney DAAO, D-serine): Allosteric Activator
- effect on DAO activity (hDAAO): activates DAO
- effect on HRP activity (HR-peroxidase): no effect
